Laboratory results reported in patent publication US20250177582A1, “HIGH-AFFINITY LIGANDS OF FIBROBLAST ACTIVATION PROTEIN FOR TARGETED DELIVERY APPLICATIONS” (PHILOCHEM AG, priority 2022, published 2025).
pIC50: −log10 of the molar value.

Tests used:
human FAP = human FAP (Homo sapiens (Human), UniProt Q12884); assay: Inhibition assay of FAP (fluorogenic substrate Z-Gly-Pro-AMC); format: biochemical; conditions: substrate Z-Gly-Pro-AMC 20 μM; FAP concentration lower than expected IC50 (66 pM in FIG. 3, 4); room temperature; read-out: IC50 vs human FAP
Chain of human FAP (Q12884 whole entry): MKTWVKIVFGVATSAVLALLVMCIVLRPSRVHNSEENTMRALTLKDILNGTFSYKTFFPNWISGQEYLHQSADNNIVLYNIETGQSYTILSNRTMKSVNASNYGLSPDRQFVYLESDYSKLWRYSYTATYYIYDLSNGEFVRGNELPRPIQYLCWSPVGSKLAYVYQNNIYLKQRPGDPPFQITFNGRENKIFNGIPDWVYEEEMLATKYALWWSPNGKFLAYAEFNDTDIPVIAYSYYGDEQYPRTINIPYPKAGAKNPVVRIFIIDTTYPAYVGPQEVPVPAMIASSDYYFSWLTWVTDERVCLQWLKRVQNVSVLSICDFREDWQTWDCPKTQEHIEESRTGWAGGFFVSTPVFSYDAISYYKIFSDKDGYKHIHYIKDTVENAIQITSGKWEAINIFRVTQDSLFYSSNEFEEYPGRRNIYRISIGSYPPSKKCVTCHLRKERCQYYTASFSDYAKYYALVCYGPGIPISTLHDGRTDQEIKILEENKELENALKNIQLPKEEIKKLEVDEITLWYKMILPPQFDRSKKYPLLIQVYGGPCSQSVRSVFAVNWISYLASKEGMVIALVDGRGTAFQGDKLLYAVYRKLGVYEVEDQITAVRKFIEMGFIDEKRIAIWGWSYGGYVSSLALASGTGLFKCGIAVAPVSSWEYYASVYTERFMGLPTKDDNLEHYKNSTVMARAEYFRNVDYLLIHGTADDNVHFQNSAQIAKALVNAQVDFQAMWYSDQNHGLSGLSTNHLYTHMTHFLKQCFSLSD
Method: (§1) Inhibition assay of FAP. The compounds were precisely weighed (range between […]) on a micro-scale (HuberLab, Sartorius QUINTIX35-1S) and dissolved in DMSO to prepare stock solutions at 1 mM. Stock solutions were further diluted with FAP activation buffer (50 mM Tris, 100 mM NaCl, 1 mM EDTA, pH=7.4) to a final DMSO concentration of 10% v/v. 10 μL of each inhibitor were serially diluted in a 384 well plate (grenier-bio one, PS, F-bottom, Black, non-binding) with 10 μL of 10% DMSO FAP buffer (1:1 dilution). FAP (human and murine) was diluted to the desired concentration with FAP activation buffer and added to the serial dilution of inhibitor (10 μL for each well). Each protein-inhibitor solution was incubated for 30 minutes at room temperature. Each measurement was performed with an enzyme concentration (FAP) lower than the expected IC50. A 60 μM solution of substrate (Z-Gly-Pro-AMC) in FAP activation buffer (<1% DMSO) was added to the plate (10 μL for each well). The reaction was incubated from 1 minute to 48 hours (see FIG. 2) at room temperature (22° C.-25° C.). The emission was read at 465 nm (excitation wavelength 360 nm) for 40 μs by Tecan Spark (s.n. 1808004082). The following controls were added to each row: positive control (no inhibitor control, 10 μL of 10% DMSO FAP buffer+10 μL of FAP solution+10 μL of substrate solution), negative control (no protein control, 10 μL of 10% DMSO FAP buffer+10 μL of FAP activation buffer+10 μL of substrate solution).
(§2) Normalization of values: The “% of FAP activity” can be calculated with the following formula:
The concentration of substrate (Z-Gly-Pro-AMC) was kept constant=20 μM. Dashed lines corresponds to sets of data with unstable fitting. […] Error bars display SEM.
(§3) FIG. 3: Inhibition assay performed with compounds 1, 2, 3, 4, 5, 6, 8 against a) 66 pM human FAP and b) 66 pM murine FAP. The concentration of substrate (Z-Gly-Pro-AMC) was kept constant=20 μM. The assay was incubated for 48 hours at 22.6° C. Error bars display SEM.
(§4) FIG. 4: a) Inhibition assay performed with compounds 8, 9 and 10 against 66 pM human FAP. The assay was incubated for 17 hours at 25° C. b) Inhibition assay performed with compound 9 against 66 pM murine FAP. The assay was incubated for 17 hours at 25° C. In both assays the concentration of substrate (Z-Gly-Pro-AMC) was kept constant=20 μM. Error bars display SEM.
FIG. 19. A: Chemical structures and corresponding IC50(hFAP) values of compounds according to the present invention. B: Chemical structures and corresponding IC50 values of compounds where the propargyl moiety at position AA^2 was replaced by different groups (Me, iPr, Bn) using both R and S stereoisomers. The sites of modification have been highlighted with arrows. Each measurement was performed with a FAP concentration lower than the expected IC50. Depending on FAP concentration, the fluorescence was measured between 10 minutes and 48 h (at room temperature) after the addition of the fluorogenic substrate (Z-Gly-Pro-AMC). IC50 values and standard errors were calculated using “[Inhibitor] vs. response—Variable slope (four parameters)” fitting (Graphpad Prism). […] By introducing the quinoline-based moiety, a single-digit nanomolar inhibitor was obtained. […] The replacement of propargylglycine with S-phenylalanine improved potency of the lead compound of additional ˜2-folds (compound 14).

Serum stability = format: in vitro ADME; conditions: mouse, in vitro, time points 0 to 48 h
Method: In two separate Eppendorf, 4 μL of compound 28 and 38 (1 mM solution in DMSO) and 36 μL of serum for each time point were mixed. After each specific time point, 40 μL of mixture were freezed in liquid nitrogen and then stored at −20° C. Once all the samples were collected, samples were defrosted at 24° C. and 300 μL of ACN were added. The samples were then centrifuged at 10′000 RPM for 5 minutes. 200 μL of the supernatant were transferred to a second Eppendorf tube and dried under vacuum for 2 h. The residue was carefully resuspended in 30 μL of mQ Water:acetonitrile=9:1 mixture (with 0.1% v/v of formic acid) and analysed by LC-MS. Each time point was performed in triplicate. The percentage of intact […] was determined extracting the area of the UV peak. The obtained values were normalized on the average area at time point corresponding to 0 hours.

murine FAP = murine FAP (Mus musculus (Mouse), UniProt P97321); assay: Inhibition assay of FAP (fluorogenic substrate Z-Gly-Pro-AMC); format: biochemical; conditions: substrate Z-Gly-Pro-AMC 20 μM; 66 pM murine FAP; room temperature
Chain of murine FAP (P97321 whole entry): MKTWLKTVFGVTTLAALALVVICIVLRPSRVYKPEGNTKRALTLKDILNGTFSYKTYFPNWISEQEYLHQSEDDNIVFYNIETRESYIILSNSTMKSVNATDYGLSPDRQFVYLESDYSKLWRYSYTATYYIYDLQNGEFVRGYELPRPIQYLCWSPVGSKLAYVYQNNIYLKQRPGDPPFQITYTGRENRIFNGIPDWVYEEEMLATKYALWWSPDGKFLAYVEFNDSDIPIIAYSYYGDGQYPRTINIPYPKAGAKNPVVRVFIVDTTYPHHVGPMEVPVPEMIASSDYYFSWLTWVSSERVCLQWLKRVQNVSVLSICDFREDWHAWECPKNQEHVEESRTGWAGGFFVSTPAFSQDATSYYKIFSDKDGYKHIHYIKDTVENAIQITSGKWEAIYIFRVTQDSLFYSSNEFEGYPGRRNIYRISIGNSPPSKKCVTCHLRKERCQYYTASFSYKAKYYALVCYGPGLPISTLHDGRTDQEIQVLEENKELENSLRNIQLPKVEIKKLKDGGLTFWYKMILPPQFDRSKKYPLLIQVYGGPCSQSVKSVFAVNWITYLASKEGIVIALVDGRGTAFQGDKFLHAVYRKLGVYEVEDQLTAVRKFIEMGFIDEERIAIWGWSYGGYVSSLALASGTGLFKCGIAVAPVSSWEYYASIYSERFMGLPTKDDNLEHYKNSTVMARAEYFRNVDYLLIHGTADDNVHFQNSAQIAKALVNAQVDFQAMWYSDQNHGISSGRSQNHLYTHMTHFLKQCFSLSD
Method: as §1, §2, §3, §4

For `CN(C)C(=N)NCCCC(NC(=O)CCC(=O)Nc1cccc2c(C(=O)NCC(=O)N3CC(F)(F)C[C@H]3C#N)ccnc12)C(=O)N[C@@H](Cc1ccccc1)C(=O)NCCNC(=O)CCC(C(=O)O)N1CCN(CC(=O)O)CCN(CC(=O)O)CCN(CC(=O)O)CC1` (stereo in doubt) [Compound 28], the pIC50 (human FAP) was 10.52, the half-life at 100 µM (Serum stability) was > 48 h and the pIC50 (murine FAP) was 11.32.
